These results are taken from PMC9527276, “Guanine inhibits the growth of human glioma and melanoma cell lines by interacting with GPR23” (Frontiers in Pharmacology, 2022).

The target of this assay is T1, GPR23 (Homo sapiens, UniProt Q99677).
T1 construct: gene LPAR4; native receptor in U87 glioma cell membranes; control vs GPR23-siRNA silenced
Briefly: [3H]-guanine radioligand saturation binding on U87 membranes; Bmax falls on GPR23 silencing.

As a reminder, the Kd is the equilibrium constant for the complex coming apart. Low readings indicate tighter binding, high ones weaker binding.

T1 sequence (Q99677 whole entry): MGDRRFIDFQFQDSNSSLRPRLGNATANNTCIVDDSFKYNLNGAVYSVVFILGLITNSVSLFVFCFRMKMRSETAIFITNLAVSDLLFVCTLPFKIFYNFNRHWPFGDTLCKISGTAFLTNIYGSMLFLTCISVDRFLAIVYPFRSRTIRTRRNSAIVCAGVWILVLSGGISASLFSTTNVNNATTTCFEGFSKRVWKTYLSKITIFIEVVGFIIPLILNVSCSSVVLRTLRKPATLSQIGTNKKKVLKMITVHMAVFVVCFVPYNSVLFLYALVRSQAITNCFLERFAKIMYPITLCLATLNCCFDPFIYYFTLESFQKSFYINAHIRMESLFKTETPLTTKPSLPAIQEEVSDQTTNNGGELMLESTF

`Nc1nc2nc[nH]c2c(=O)[nH]1` [GUA, guanine] came in with a Kd of 0.0294 ± 0.00407 µM.
